For orientation: EC50 means the midpoint of the concentration-response curve. What is called Emax is the greatest response seen or fitted, relative to the assay's reference.

Counter-ions that a name gives are not always drawn.

EC50 and Emax data for 14 compounds are collected here from patent US10927126B2, “Positive allosteric modulators of the muscarinic acetylcholine receptor M4” (Vanderbilt University, priority 2016, dated 2021).

The test addresses T1, Human M4 (Homo sapiens, UniProt P08173).
T1 sequence (P08173 1-479): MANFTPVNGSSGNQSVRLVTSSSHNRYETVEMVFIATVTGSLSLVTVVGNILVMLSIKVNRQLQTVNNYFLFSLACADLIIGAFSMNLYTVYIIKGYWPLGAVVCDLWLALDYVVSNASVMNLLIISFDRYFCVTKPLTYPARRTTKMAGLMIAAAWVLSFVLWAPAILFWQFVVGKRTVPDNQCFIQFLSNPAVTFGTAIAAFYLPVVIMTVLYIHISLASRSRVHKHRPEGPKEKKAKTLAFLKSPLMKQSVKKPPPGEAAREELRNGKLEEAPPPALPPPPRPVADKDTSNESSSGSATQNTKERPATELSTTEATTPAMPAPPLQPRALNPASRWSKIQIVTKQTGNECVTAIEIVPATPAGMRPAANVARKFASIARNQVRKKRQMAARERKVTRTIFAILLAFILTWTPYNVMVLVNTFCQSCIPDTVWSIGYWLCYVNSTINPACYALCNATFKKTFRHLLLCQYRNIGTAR
The test can be described thus: mAChR M4 cell-based functional assay (calcium flux, potentiation of EC20 acetylcholine response). Details: Emax: dose or concentration left out as unconfirmed. (In general: Calcium assays in cells follow changes in intracellular calcium, usually with a dye or a luminescent sensor.)
With `Cc1cc(C)c2c(n1)sc1c(NC3CCCC3)nccc12` [Compound 1, N-cyclopentyl-2,4-dimethylthieno[2,3-b: 5,4-c]dipyridin-8-amine], the EC50 was found to be 0.124 µM and the Emax was 67%.

Regarding `Cc1cc(C)c2c(n1)sc1c(N3CCCC3)nccc12` [Compound 2, 2,4-dimethyl-8-(pyrrolidin-1-yl)thieno[2,3-b:5,4-c′]dipyridine], the EC50 came out at 0.233 µM and the Emax is 97.8%.

On to `Cc1cc(C)c2c(n1)sc1c(NC3CCC3)nccc12` [Compound 3, N-cyclobutyl-2,4-dimethylthieno[2,3-b:5,4-c′]dipyridin-8-amine dihydrochloride], for which the half-maximal effective concentration (EC50) turned out to be 0.0849 µM and the maximal effect (Emax) worked out at 89.8%.

On to `Cc1cc(C)c2c(n1)sc1c(N(C)C)nccc12` [Compound 4, N,N,2,4-tetramethylthieno[2,3-b:5,4-c′]dipyridin-8-amine], for which the EC50 came out at 0.202 µM and the Emax was found to be 81.9%.

On to `Cc1nnc2sc3c(NC4CCCC4)nccc3c2c1C` [Compound 5, N-Cyclopentyl-3,4-dimethyl-pyrido[4′,3′:4,5]thieno[2,3-c]pyridazin-8-amine Hydrochloride], for which the concentration for a half-maximal effect (EC50) was determined as 0.0123 µM and the Emax came out at 80.3%.

In the case of `Cc1nnc2sc3c(N4CCCC4)nccc3c2c1C` [Compound 6, 3,4-dimethyl-8-pyrrolidin-1-yl-pyrido[4′,3′:4,5]thieno[2,3-c]pyridazine hydrochloride], the EC50 amounted to 0.0236 µM and the Emax was determined as 73%.

Regarding `Cc1nnc2sc3c(NC4CCC4)nccc3c2c1C` [Compound 7, N-cyclobutyl-3,4-dimethyl-pyrido[4′,3′:4,5]thieno[2,3-c]pyridazin-8-amine hydrochloride], the EC50 is 0.0598 µM and the Emax was found to be 80.2%.

`Cc1nnc2sc3c(NC4CC4)nccc3c2c1C` [Compound 8, N-cyclopropyl-3,4-dimethyl-pyrido[4′,3′:4,5]thieno[2,3-c]pyridazin-8-amine hydrochloride]: the EC50 came to 0.0121 µM and the Emax was determined as 74.8%.

For the compound `COc1ccc(CNc2nccc3c2sc2nnc(C)c(C)c23)cc1` [Compound 9, N-[(4-methoxyphenyl)methyl]-3,4-dimethyl-pyrido[4′,3′:4,5]thieno[2,3-c]pyridazin-8-amine hydrochloride], the Emax stood at 76.8%.

For the compound `Cc1nnc2sc3c(NC4CN(c5ncc(C(F)(F)F)cn5)C4)nccc3c2c1C` [Compound 10, 3,4-dimethyl-N-[1-[5-(trifluoromethyl)pyrimidin-2-yl]azetidin-3-yl]pyrido[4′,3′:4,5]thieno[2,3-c]pyridazin-8-amine hydrochloride], the EC50 came out at 0.0671 µM and the Emax worked out at 74.4%.

Consider `Cc1nnc2sc3c(NCc4ccc(OC(F)(F)F)cc4)nccc3c2c1C` [Compound 11, 3,4-dimethyl-N-[[4-(trifluoromethoxy)phenyl]methyl] pyrido[4′,3′:4,5]thieno[2,3-c]pyridazin-8-amine hydrochloride], for which the concentration for a half-maximal effect (EC50) came to 1.03 µM and the Emax worked out at 72.8%.

`Cc1nnc2sc3c(NC4CN(c5ncc(F)cn5)C4)nccc3c2c1C` [Compound 12, N-[1-(5-fluoropyrimidin-2-yl)azetidin-3-yl]-3,4-dimethyl-pyrido[4′,3′:4,5]thieno[2,3-c]pyridazin-8-amine hydrochloride]: the EC50 came out at 0.0182 µM and the Emax came out at 77.4%.

As for `Cc1nnc2sc3c(NCc4ccc(C(=O)N5CCOCC5)cc4)nccc3c2c1C` [Compound 13, [4-[[(3,4-dimethylpyrido[4′,3′:4,5]thieno[2,3-c]pyridazin-8-yl)amino]methyl]phenyl]-morpholino-methanone], the EC50 is 0.066 µM and the Emax is 81.9%.

`COc1ccc(CNc2nccc3c2sc2nnc(C)c(C)c23)cc1F` [Compound 14, N-[(3-fluoro-4-methoxy-phenyl)methyl]-3,4-dimethylpyrido[4′,3′:4,5]thieno[2,3-c]pyridazin-8-amine hydrochloride]: the EC50 came to 0.0143 µM and the Emax was 91.3%.
